This is an account of results in patent US20230364204A1, “Bioactive Peptides, Compositions, Production Process, and Use of Bioactive Peptides as Anti-Tumoral Agents” (priority 2022, published 2023).

The test system of data set [1] is MDAMB231 cells (triple negative). As to the kind of experiment: MTT cell viability, tumor cells. It is filed as cell-based. Here is the method:
(§1) For the method of MTT, the cells were plated in 96-well sterile plates for cell culture with a cap at the density of 2 × 10^4 cells/well for treatments lasting 24 h and 1 × 10^4 cells/well for treatments lasting 48 h or more, completing the volume to 100 µL with culture medium. The plates were incubated for 8-16 h in an incubator at 37° C. and 5% CO2. The next day, the treatments were prepared in culture medium, applying 200 µL/well at the desired concentration, and the plates were placed in an incubator at 37° C. and 5% CO2for the duration of treatment. After the treatment period, 20 µL/well of a MTT solution was added in PBS (1×) at a concentration of 5 mg/mL, and the dye was incubated at 37° C. and 5% CO2 for 2.5 h. After incubation with MTT, Formazan salts were solubilized with the addition of 200 µL of dimethylsulfoxide solution (DMSO): isopropanol (3:1) and agitated for at least 15 minutes at room temperature. After complete dissolution of the salts, the absorbance was read in a spectrophotometer at 570 nm with endpoint protocol.
(§2) The calculation of cell viability was performed using the formula: […]
(§3) O.D.: optical density captured by spectrophotometer
(§4) NOTE: The Basal O.D. is the one found in the blank wells.
In order to determine the efficacy (comparison of doses and times for the MDAMB231 cell line) and safety (comparison between the effects on MDAMB231 and HDFa cells) of the peptide SEQ ID 1 - MFYPDSRCRGPSET (C-terminal region of Crotoxin B), named 3-NAntC, the Analysis of Variance (ANOVA) with Bonferroni post-hoc test was applied to the significance of 5% in GraphPad Prism software version 6.0.

Data set [2] can be described thus: MTT cell viability, mammary benign cells. It counts as cell-based. The following applies: human, MCF10A cells (mammary benign cells), read-out: viable cells (MTT). Here is the method:
as §1, §2, §3, §4

Data set [3] relates to MDA-MB-231 cells implanted in zebrafish larvae. Nature of the data set: Zebrafish xenograft model of MDAMB231 (primary tumor and metastasis). The following applies: 72 h, 3-NantC co-implanted at 75, 100 or 125 mg/mL, Doxorubicin 2.5 µg/mL in embryo water. It is filed as in vivo. Here is the method:
Transgenic Tg(fli1:EGFP)y1 zebrafish embryos were raised at 28° C. for 48 hours in E3 embryo medium 0.2 mM 1-Phenyl-2-Thiourea aka PTU. […] MDA-MB-231 cells were labeled with Dil red fluorescent dye. Approximately 700 Dil Labeled cancer cells were subcutaneously co-implanted into the perivitelline space of 2 days old larvae ± 3-NantC peptide at […]. Larvae in which tumor cells had been inadvertently injected into circulation or larvae with erroneous implantation of the tumor in the yolk rather than the perivitelline space were excluded from the study. Selected tumor bearing embryos were sorted into experimental groups (20 embryos/group), and pictures of primary tumors were taken right after injection. Doxorubicin treatment was added to embryo water at 2.5 µg/mL according to the study plan. Tumor-bearing embryos were incubated in E3/PTU medium for 72 h at 36° C. After incubation, pictures of the primary tumors and the CVP were taken using a red fluorescent filter. Larvae that died or were lost by other means during the study were excluded from the final analysis.
Images obtained right after implantation (day 0) and after 72 h incubation (day 3) were analyzed by using in-house developed software. Tumor growth regression was calculated and normalized to the negative control group. The number of metastasized cells was counted manually. One-way ANOVA was performed followed by two-tailed Student’s t-test. Definitive outliers were detected using the ROUT method with a Q=1%. Graphs and example images, and experimental data were obtained/analyzed by using GraphPad Prism v9.0.2.

For the compound “[H]-HLLQ FNKMIKFETRKNAIPF-[OH] (N-terminal HLLQ) [Peptide A, peptide derived from the N-terminal region of Crotoxin B, reference compound]”, the “effect on viability of the tumor cells (MTT), in words” value in data set [1] (MDAMB231) is on record as “did not decrease the viability”.
On to “MFYPDSRSRGPSET [SEQ ID 10, 3-NAntC monomer]”, for which, in data set [1] (MDAMB231, SEQ IDs 2-10 compared to SEQ ID 1), the “compared efficacy in decreasing MDAMB231 cells' viability (MTT, FIG. 13/14)” value is “interesting antitumor effect”.
As to “H-AIPFYAFY-OH [Peptide B, [H)-AIPFYAFY-(OH]]”, in data set [2], the viability at 48 h was ~85%.
Take `COc1cccc2c1C(=O)c1c(O)c3c(c(O)c1C2=O)C[C@@](O)(C(=O)CO)C[C@@H]3O[C@H]1C[C@H](N)[C@H](O)[C@H](C)O1` [Doxorubicin, reference compound]: the “decrease of tumor cells (primary tumor)” value in data set [3] is “about 35%”.
